# Biological target: unphosphorylated-BTK kinase domain (UP-BTK), GST-tagged human BTK (389-659aa) (Homo sapiens (Human), UniProt Q06187)
# Assay: BTK Kinase Lanthascreen Binding Assay
# Conditions: Lanthascreen binding, 60 minutes incubation; pIC50 = negative log of the IC50 in molar
# Experimental: BTK Kinase Lanthascreen Binding Assay:
# A BTK kinase lanthascreen binding assay monitors compound binding to unphosphorylated-BTK kinase domain (UP-BTK), by competing with a fluorescent labeled tracer. […] Data were analyzed using Xlfit™ version 5.3 from ID Business Solutions (Guildford), Microsoft Excel add-in. pIC50 refers to the negative log of the IC50 in molar.
# unphosphorylated-BTK kinase domain (UP-BTK), GST-tagged human BTK (389-659aa), sequence (Q06187 389-659): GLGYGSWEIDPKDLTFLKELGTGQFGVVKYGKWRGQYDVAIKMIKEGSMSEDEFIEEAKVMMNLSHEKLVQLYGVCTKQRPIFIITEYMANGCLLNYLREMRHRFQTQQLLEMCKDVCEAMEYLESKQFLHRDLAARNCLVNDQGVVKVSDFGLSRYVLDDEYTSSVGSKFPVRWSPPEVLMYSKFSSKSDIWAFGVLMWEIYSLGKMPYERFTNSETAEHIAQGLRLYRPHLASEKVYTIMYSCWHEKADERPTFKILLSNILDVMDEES
row,SMILES,BTK_I_binding pIC50
1,"C=CC(=O)N[C@@H]1CCC[C@H]1NC(=O)c1sc2nccc3c2c1NC(=O)N3c1ccc(Oc2ccccc2)nc1C (single isomer, unassigned) [Example 301, N-((1R,2R)-2-Acrylamidocyclopentyl)-5-(*S)-(2-methyl-6-phenoxypyridin-3-yl)-4-oxo-4,5-dihydro-3H-1-thia-3,5,8-triazaacenaphthylene-2-carboxamide]",7.97

# Same assay, conditions: compound, 50 nM Tracer 236, 2 nM anti-GST antibody, 60 minutes; pIC50 = negative log of the IC50 in molar
row,SMILES,BTK_I_binding pIC50
1,"C=CC(=O)N[C@H]1CCCC[C@H]1NC(=O)c1sc2nccc3c2c1NC(=O)N3c1ccc(OC2CCC2)nc1C (single isomer, unassigned) [Example 242, N-((1R,2S)-2-Acrylamidocyclohexyl)-5-(*R)-(6-cyclobutoxy-2-methylpyridin-3-yl)-4-oxo-4,5-dihydro-3H-1-thia-3,5,8-triazaacenaphthylene-2-carboxamide]",7.04
2,"Cc1cc(Oc2ccccc2)ccc1N1C(=O)Nc2c(C(=O)N[C@H]3CCC[C@H](NC(=O)CN(C)C)C3)sc3nccc1c23 (single isomer, unassigned) [Example 252, N-((1R,3S)-3-(2-(Dimethylamino)acetamido)cyclohexyl)-5-(*S)-(2-methyl-4-phenoxyphenyl)-4-oxo-4,5-dihydro-3H-1-thia-3,5,8-triazaacenaphthylene-2-carboxamide]",6.63
3,"C=CC(=O)N[C@@H]1CCCC[C@H]1NC(=O)c1sc2nccc3c2c1NC(=O)N3c1ccc(OC(C)C)cc1C (single isomer, unassigned) [Example 264, N-((1R,2R)-2-Acrylamidocyclohexyl)-5-(*R)-(4-isopropoxy-2-methylphenyl)-4-oxo-4,5-dihydro-3H-1-thia-3,5,8-triazaacenaphthylene-2-carboxamide]",6.26
4,"C=CC(=O)N[C@H]1CCCC[C@H]1NC(=O)c1sc2nccc3c2c1NC(=O)N3c1cnc(OC2CCC2)cc1C (single isomer, unassigned) [Example 266, N-((1R,2S)-2-Acrylamidocyclohexyl)-5-(*R)-(6-cyclobutoxy-4-methylpyridin-3-yl)-4-oxo-4,5-dihydro-3H-1-thia-3,5,8-triazaacenaphthylene-2-carboxamide]",6.21

# Other lines, results leading:
row,BTK_I_binding pIC50,SMILES
1,6.72,"Cc1cc(Oc2ccccc2)ccc1N1C(=O)Nc2c(C(=O)N[C@@H]3CC[C@H](N)C3)sc3nccc1c23 (single isomer, unassigned) [Example 240, N-((1R,3S)-3-Aminocyclopentyl)-5-(*S)-(2-methyl-4-phenoxyphenyl)-4-oxo-4,5-dihydro-3H-1-thia-3,5,8-triazaacenaphthylene-2-carboxamide]"
2,7.26,"CC(=O)N[C@H]1CC[C@H](NC(=O)c2sc3nccc4c3c2NC(=O)N4c2ccc(Oc3ccccc3)cc2C)C1 (single isomer, unassigned) [Example 241, N-((1S,3S)-3-Acetamidocyclopentyl)-5-(*S)-(2-methyl-4-phenoxyphenyl)-4-oxo-4,5-dihydro-3H-1-thia-3,5,8-triazaacenaphthylene-2-carboxamide]"
3,6.85,"CC(=O)N[C@H]1CCC[C@H](NC(=O)c2sc3nccc4c3c2NC(=O)N4c2ccc(Oc3ccccc3)cc2C)C1 (single isomer, unassigned) [Example 243, N-((1S,3S)-3-Acetamidocyclohexyl)-5-(*S)-(2-methyl-4-phenoxyphenyl)-4-oxo-4,5-dihydro-3H-1-thia-3,5,8-triazaacenaphthylene-2-carboxamide]"
4,6.66,"CC(=O)N[C@H]1CC[C@@H](NC(=O)c2sc3nccc4c3c2NC(=O)N4c2ccc(Oc3ccccc3)cc2C)C1 (single isomer, unassigned) [Example 244, N-((1R,3S)-3-Acetamidocyclopentyl)-5-(*S)-(2-methyl-4-phenoxyphenyl)-4-oxo-4,5-dihydro-3H-1-thia-3,5,8-triazaacenaphthylene-2-carboxamide]"
5,6.66,"Cc1cc(Oc2ccccc2)ccc1N1C(=O)Nc2c(C(=O)N[C@H]3CCC[C@H](N)C3)sc3nccc1c23 (single isomer, unassigned) [Example 247, N-((1S,3S)-3-Aminocyclohexyl)-5-(*S)-(2-methyl-4-phenoxyphenyl)-4-oxo-4,5-dihydro-3H-1-thia-3,5,8-triazaacenaphthylene-2-carboxamide]"
6,6.71,"Cc1cc(Oc2ccccc2)ccc1N1C(=O)Nc2c(C(=O)N[C@H]3CCC[C@H](NC(=O)CN)C3)sc3nccc1c23 (single isomer, unassigned) [Example 251, N-((1R,3S)-3-(2-Aminoacetamido)cyclohexyl)-5-(*S)-(2-methyl-4-phenoxyphenyl)-4-oxo-4,5-dihydro-3H-1-thia-3,5,8-triazaacenaphthylene-2-carboxamide]"
7,6.63,"CC(=O)N[C@H]1CCC[C@H](NC(=O)c2sc3nccc4c3c2NC(=O)N4c2ccc(Oc3ccccc3)cc2C)C1 (single isomer, unassigned) [Example 253, N-((1R,3S)-3-Acetamidocyclohexyl)-5-(*S)-(2-methyl-4-phenoxyphenyl)-4-oxo-4,5-dihydro-3H-1-thia-3,5,8-triazaacenaphthylene-2-carboxamide]"
8,6.55,"Cc1nc(Oc2ccccc2)ncc1N1C(=O)Nc2c(C(=O)N[C@@H]3CCC[C@@H]3N)sc3nccc1c23 (single isomer, unassigned) [Example 254, N-((1R,2S)-2-aminocyclopentyl)-5-(*)-(4-methyl-2-phenoxypyrimidin-5-yl)-4-oxo-4,5-dihydro-3H-1-thia-3,5,8-triazaacenaphthylene-2-carboxamide]"
9,6.51,"Cc1cc(Oc2ccccc2)ncc1N1C(=O)Nc2c(C(=O)N[C@@H]3CCCC[C@H]3N)sc3nccc1c23 (single isomer, unassigned) [Example 255, N-((1R,2R)-2-Aminocyclohexyl)-5-(*S)-(4-methyl-6-phenoxypyridin-3-yl)-4-oxo-4,5-dihydro-3H-1-thia-3,5,8-triazaacenaphthylene-2-carboxamide]"
10,6.48,"Cc1nc(Oc2ccccc2)ncc1N1C(=O)Nc2c(C(=O)N[C@@H]3CCC[C@H]3N)sc3nccc1c23 (single isomer, unassigned) [Example 256, N-((1R,2R)-2-Aminocyclopentyl)-5-(*S)-(4-methyl-2-phenoxypyrimidin-5-yl)-4-oxo-4,5-dihydro-3H-1-thia-3,5,8-triazaacenaphthylene-2-carboxamide]"
11,6.45,"Cc1cc(Oc2ccccc2)ccc1N1C(=O)Nc2c(C(=O)N[C@H]3CC[C@H](N)C3)sc3nccc1c23 (single isomer, unassigned) [Example 259, N-((1S,3S)-3-Aminocyclopentyl)-5-(*S)-(2-methyl-4-phenoxyphenyl)-4-oxo-4,5-dihydro-3H-1-thia-3,5,8-triazaacenaphthylene-2-carboxamide]"
12,6.42,"Cc1cc(Oc2ccccc2)ccc1N1C(=O)Nc2c(C(=O)N[C@@H]3CCC[C@H](N)C3)sc3nccc1c23 (single isomer, unassigned) [Example 261, N-((1R,3S)-3-Aminocyclohexyl)-5-(*S)-(2-methyl-4-phenoxyphenyl)-4-oxo-4,5-dihydro-3H-1-thia-3,5,8-triazaacenaphthylene-2-carboxamide]"
13,6.39,"Cc1cc(OC(C)C)ccc1N1C(=O)Nc2c(C(=O)N[C@@H]3CCC[C@@H]3N)sc3nccc1c23 (single isomer, unassigned) [Example 262, N-((1R,2S)-2-Aminocyclopentyl)-5-(*R)-(4-isopropoxy-2-methylphenyl)-4-oxo-4,5-dihydro-3H-1-thia-3,5,8-triazaacenaphthylene-2-carboxamide]"

# Same assay, conditions: read-out: BTK_I_binding pIC50 (converted)
row,SMILES,IC50
1,"C=CC(=O)N[C@H]1CCCC[C@@H]1NC(=O)c1sc2nccc3c2c1NC(=O)N3c1ccc(OC(C)C)cc1C (single isomer, unassigned) [Example 272, N-((1S,2S)-2-Acrylamidocyclohexyl)-5-(*R)-(4-isopropoxy-2-methylphenyl)-4-oxo-4,5-dihydro-3H-1-thia-3,5,8-triazaacenaphthylene-2-carboxamide]",> 1 µM
2,"C=CC(=O)N[C@@H]1CCCC[C@H]1NC(=O)c1sc2nccc3c2c1NC(=O)N3c1ccc(OC(C)C)cc1C (single isomer, unassigned) [Example 273, N-((1R,2R)-2-Acrylamidocyclohexyl)-5-(*S)-(4-isopropoxy-2-methylphenyl)-4-oxo-4,5-dihydro-3H-1-thia-3,5,8-triazaacenaphthylene-2-carboxamide]",> 1 µM
3,"C=CC(=O)N[C@H]1CCC[C@H](NC(=O)c2sc3nccc4c3c2NC(=O)N4c2ccc(OC(C)C)cc2C)C1 (single isomer, unassigned) [Example 274, N-((1S, S)-3-Acrylamidocyclohexyl)-5-(*R)-(4-isopropoxy-2-methylphenyl)-4-oxo-4,5-dihydro-3H-1-thia-3,5,8-triazaacenaphthylene-2-carboxamide]",> 1 µM
4,"C=CC(=O)N[C@H]1CCC[C@@H](NC(=O)c2sc3nccc4c3c2NC(=O)N4c2ccc(OC(C)C)cc2C)C1 (single isomer, unassigned) [Example 275, N-((1R,3S)-3-Acrylamidocyclohexyl)-5-(*R)-(4-isopropoxy-2-methylphenyl)-4-oxo-4,5-dihydro-3H-1-thia-3,5,8-triazaacenaphthylene-2-carboxamide]",> 1 µM
5,"C=CC(=O)N[C@H]1CC[C@@H](NC(=O)c2sc3nccc4c3c2NC(=O)N4c2ccc(OC(C)C)cc2C)C1 (single isomer, unassigned) [Example 276, N-((1R,3S)-3-Acrylamidocyclopentyl)-5-(*R)-(4-isopropoxy-2-methylphenyl)-4-oxo-4,5-dihydro-3H-1-thia-3,5,8-triazaacenaphthylene-2-carboxamide]",> 1 µM

# Reference: patent publication US10934310B2, “Inhibitors of Bruton's tyrosine kinase and method of their use” (JANSSEN PHARMACEUTICA NV, priority 2015, dated 2021)
